Reference: patent US5583127A, “17-iminomethylalkenyl-5 β, 14 β-androstane and 17-iminoalkyl-5 β, 14 β-androstane derivatives active on the cardiovascular system, and pharmaceutical compositions containing same” (Sigma-Tau Industrie Farmaceutiche Riunite S.p.A., priority 1993, dated 1996)
pIC50: −log10 of the molar value. Where two headings read alike, the source gives them in different places.

How the values were obtained:
[1] = molecular target: purified Na^+,K^+ -ATPase (Homo sapiens, UniProt P05023); assay: inhibition of the activity of the purified Na+,K+-ATPase (% hydrolysis of 32P-ATP); assay type: biochemical; conditions: for IC50: read-out: Inhibitory Activity log IC50 (converted)
[2] = molecular target: Na^+, K^+ -ATPase receptor (Homo sapiens, UniProt P05023); assay: displacement of the specific 3H-ouabain binding from the Na+,K+-ATPase receptor; conditions: for IC50: displacement of specific 3H-ouabain binding, read-out: Binding ^3 H-Ouab. Displacement log IC50 (converted)
Na^+,K^+ -ATPase = conditions: reported in literature; cited from earlier work
[3] = reported in literature; cited from earlier work
[4] = tested on: spontaneous hypertensive rats (MHS); assay: effect of 5 week-treatment in spontaneous hypertensive rats (MHS) on the development of hypertension (SBP and HR, tail cuff); assay type: in vivo, rat; conditions: 10 mg/Kg/os daily in Methocel 0.5% w/v, 5 weeks
Protocol: Systolic blood pressure (SBP) and heart rate (HR) were measured, by the tail cuff method, in young prehypertensive male rats (MHS or SHR) strains before the development of hypertension (4 weeks of age) for recording the basal values of SBP. Groups of 7 rats were formed and subdivided in control and treated groups. The compound, suspended in Methocel 0.5% (w/v), was orally given daily for at least 5 weeks to the treated groups. The control group received only Methocel. SBP and HR were measured weekly 6 and 24 hrs after treatment. After 5 weeks of treatment, when hypertension was fully developed in the control group (9 weeks of age), washout was started for at least one week, to verify whether the treatment maintained blood pressure low or reestablished the basal values. […] (Takeda K. et al., Japan J. Pharmacol., 1979, 29,171; Takeda K. et al. Japan J. Pharmacol., 1982, 32, 283; Richer C. et al. Eur. J. Pharmacol, 1978, 47,393).

| SMILES | IC50 ([1]; purified Na+,K+-ATPase) | IC50 [2] | other results |
| --- | --- | --- | --- |
| CN(C)CCON=CC[C@@]1(O)CC[C@]2(O)[C@@H]3CC[C@@H]4C[C@@H](O)CC[C@]4(C)[C@H]3CC[C@]12C (mixture of isomers) [Comp. I-bt, (EZ)-17β-[2-(2-Dimethylaminoethoxyimino)ethyl]-5β-androstane-3β,14β,17α-triol] | 10000 nM | 794 nM | – |
| CN(C)CCON=CC[C@H]1CC[C@]2(O)[C@@H]3CC[C@@H]4C[C@@H](OCCN5CCCC5)CC[C@]4(C)[C@H]3CC[C@]12C (mixture of isomers) [Comp. I-cg, 3β-[2-(1-Pyrrolidinyl)ethoxy]-17β-[3-(EZ)-(2-dimethylamino-ethoxyimino)ethyl]-5β-androstane-14β-ol] | 100 nM | 31.6 nM | – |
| CN(C)CCON=C/C=C/[C@H]1CC[C@]2(O)[C@@H]3CC[C@@H]4C[C@@H](O)CC[C@]4(C)[C@H]3CC[C@]12C (mixture of isomers) [Comp. I-aq, 17β-[3-(EZ)-(2-Dimethylaminoethoxyimino)-1-(E)-propenyl]-5β-androstane-3β,14β-diol] | 31.6 nM | 25.1 nM | – |
| CN(C)CCON=CC[C@H]1CC[C@]2(O)[C@@H]3CC[C@@H]4C[C@@H](OCCCN5CCCC5)CC[C@]4(C)[C@H]3CC[C@]12C (mixture of isomers) [Comp. I-ci, 3β-[3-(1-Pyrrolidinyl)propoxy]-17β-[3-(EZ)-(2-dimethylamino-ethoxyimino)ethyl]-5β-androstane-14β-ol] | 158 nM | – | pIC50 [2]: 7.30 |
| C[C@]12CC[C@H](O)C[C@H]1CC[C@@H]1[C@@H]2CC[C@]2(C)[C@@](O)(/C=C/C=N/NC(=N)N)CC[C@]12O [Comp. 1-bo, (E,E)-17β-(3-Guanidinoimino-1-propenyl)-5β-androstane-3β,14β,17α-triol] | 10000 nM | 501 nM | – |
| CO/N=C/C=C/[C@H]1CC[C@]2(O)[C@@H]3CC[C@@H]4C[C@@H](O)CC[C@]4(C)[C@H]3CC[C@]12C [Comp. I-an, (E,E)-17β-(3-Methoxyimino-1-propenyl)-5β-androstane-3β,14β-diol] | 20000 nM | 2000 nM | – |
| CN(C)CCNC(=N)N/N=C/C=C/[C@H]1CC[C@]2(O)[C@@H]3CC[C@@H]4C[C@@H](O)CC[C@]4(C)[C@H]3CC[C@]12C [Comp. I-ai, (E,E)-17β-{3-[3-(2-Dimethylaminoethyl)guanidinoimino]-1-propenyl}-5β-androstane-3β,14β-diol] | – | 251 nM | IC50 [1]: 3160 nM |
| C[C@]12CC[C@H](O)C[C@H]1CC[C@@H]1[C@@H]2CC[C@]2(C)[C@@H](CC=NNC3=NCCN3)CC[C@]12O (mixture of isomers) [Comp. I-bd, (EZ)-17β-[2-(2-Imidazolin-2-yl)hydrazonoethyl]-5β-androstane-3β,14β-diol] | 631 nM | 126 nM | – |
| C[C@]12CC[C@H](O)C[C@H]1CC[C@@H]1[C@@H]2CC[C@]2(C)[C@@H](CCC=NNC3=NCCN3)CC[C@]12O (mixture of isomers) [Comp. I-bj, (EZ)-17β-[3-(2-Imidazolin-2-yl)hydrazonopropyl]-5β-androstane-3β,14β-diol] | – | 251 nM | IC50 [1]: 3160 nM |
| C[C@]12CC[C@H](O)C[C@H]1CC[C@@H]1[C@@H]2CC[C@]2(C)[C@@H](CC=NOCCN)CC[C@]12O (mixture of isomers) [Comp. I-bf, (EZ)-17β-[2-(2-Aminoethoxyimino)ethyl]-5β-androstane-3β,14β-diol] | 316 nM | 25.1 nM | – |
| C[C@]12CC[C@H](O)C[C@H]1CC[C@@H]1[C@@H]2CC[C@]2(C)[C@@H](C=NNC(=N)N)CC[C@]12O [17β-guanidinoiminomethyl-5β-androstane-3β,14β-diol] | – | – | inhibition of Na+,K+-ATPase (Na^+,K^+ -ATPase): weak inhibitors of Na^+,K^+ -ATPase; positive inotropic activity [3]: weak positive inotropic agents |
| C[C@]12CC[C@H](O)C[C@H]1CC[C@@H]1[C@@H]2CC[C@]2(C)[C@@H](/C=C/C=N/NC(=N)N)CC[C@]12O [Comp. I-aa, (E,E)-17β-(3-Guanidinoimino-1-propenyl)-5β-androstane-3β,14β-diol] | – | 25.1 nM | SBP (systolic blood pressure) ([4]; controls 172 +/- 3.5): 149 +/- 3.9 mm Hg; HR (heart rate) ([4]; controls 380 +/- 9.0): 373 +/- 10.0 beats/min. |
| C[C@]12CC[C@H](OCCN)C[C@H]1CC[C@@H]1[C@@H]2CC[C@]2(C)[C@@H](/C=C/C=NNC(=N)N)CC[C@]12O (mixture of isomers) [Comp. I-cb] | 100 nM | 20 nM | – |
| C[C@]12CC[C@@H](O)C[C@H]1CC[C@@H]1[C@@H]2CC[C@]2(C)[C@@H](/C=C/C=N/NC(=N)N)CC[C@]12O [Comp. I-ej, (E,E)-17β-(3-Guanidinoimino-1-propenyl)-5β-androstane-3α,14β-diol] | 316 nM | – | pIC50 [2]: 7.30 |
| CN(C)CCON=C/C=C/[C@H]1CC[C@]2(O)[C@@H]3CC[C@@H]4C[C@@H](OCCCN)CC[C@]4(C)[C@H]3CC[C@]12C (mixture of isomers) [Comp. 1-ce, 3β-(3-Aminopropoxy)-17β-[3-(EZ)-(2-dimethylaminoethoxy-imino)-1-(E)-propenyl]-5β-androstane-14β-ol] | 20 nM | 15.8 nM | – |
| CC(CO[C@H]1CC[C@@]2(C)[C@H](CC[C@@H]3[C@@H]2CC[C@]2(C)[C@@H](/C=C/C=NOCCN(C)C)CC[C@]32O)C1)N1CCCC1 (mixture of isomers) [Comp. I-ca, 3β-[2-(1-Pyrrolidinyl)propoxy]-17β-[3-(EZ)-(2-dimethylamino-ethoxyimino)-1-(E)-propenyl]-5β-androstane-14β-ol] | 39.8 nM | 31.6 nM | – |
| CN1CCN=C1N/N=C/C=C/[C@H]1CC[C@]2(O)[C@@H]3CC[C@@H]4C[C@@H](O)CC[C@]4(C)[C@H]3CC[C@]12C [Comp. I-ae, (E,E)-17β-[3-(1-Methyl-2-imidazolin-2-yl)hydrazono-1-propenyl]-5β-androstane-3β,14β-diol] | – | – | pIC50 [1]: 5.60; pIC50 [2]: 6.80 |
| C[C@]12CC[C@H](O)C[C@H]1CC[C@@H]1[C@@H]2CC[C@]2(C)[C@@H](/C=C/C=N\NC(=N)N)CC[C@]12O [Comp. I-ab, 17β-[3-(Z)-Guanidinoimino-1-(E)-propenyl]-5β-androstane-3β,14β-diol] | – | 316 nM | IC50 [1]: 3160 nM |
| C[C@]12CC[C@H](O)C[C@H]1CC[C@@H]1[C@@H]2CC[C@]2(C)[C@@](O)(/C=C/C=N/NC3=NCCN3)CC[C@]12O [Comp. I-bp, (E,E)-17β-[3-(2-Imidazolin-2-yl)hydrazono-1-propenyl]-5β-androstane-3β,14β,17α-triol] | – | 631 nM | IC50 [1]: 7940 nM |
| C[C@]12CC[C@H](O)C[C@H]1CC[C@@H]1[C@@H]2CC[C@]2(C)[C@@H](/C=C/C=N/NC(N)=O)CC[C@]12O [Comp. I-ak, (E,E)-17β-(3-Semicarbazono)-1-propenyl-5β-androstane-3β,14β-diol] | – | 2000 nM | IC50 [1]: 25100 nM |
| C[C@]12CC[C@H](O)C[C@H]1CC[C@@H]1[C@@H]2CC[C@]2(C)[C@@H](/C=C/C=N/NC3=NCCCN3)CC[C@]12O [Comp. I-ag, (E,E)-17β-[3-(1,4,5,6-Tetrahydro-2-pyrimidinyl)hydrazono-1-propenyl]-5β-androstane-3β,14β-diol] | 1580 nM | 39.8 nM | – |
| C[C@]12CC[C@H](O)C[C@H]1CC[C@@H]1[C@@H]2CC[C@]2(C)[C@@H](/C=C/C=C/C=N/NC3=NCCN3)CC[C@]12O [Comp. I-av, (E,E,E)-17β-[5-(2-Imidazolin-2-yl)hydrazono-1,3-pentadienyl]-5β-androstane-3β,14β-diol] | 10000 nM | 1000 nM | – |
| CN(C)CCON=C/C=C/[C@H]1CC[C@]2(O)[C@@H]3CC[C@@H]4C[C@@H](OCCN5CCCC5)CC[C@]4(C)[C@H]3CC[C@]12C (mixture of isomers) [Comp. I-by, 3β-[2-(1-Pyrrolidinyl)ethoxy]-17β-[3-(EZ)-(2-dimethylamino-ethoxyimino)-1-(E)-propenyl]-5β-androstane-14β-ol] | 31.6 nM | 20 nM | – |
| C[C@]12CC[C@H](O)C[C@H]1CC[C@@H]1[C@@H]2CC[C@]2(C)C(=NNC(=N)N)CC[C@]12O [17-guanidinoimino-5β-androstane-3β,14β-diol] | – | – | inhibition of Na+,K+-ATPase (Na^+,K^+ -ATPase): weak inhibitors of Na^+,K^+ -ATPase; positive inotropic activity [3]: weak positive inotropic agents |
| CN(C)CCON=CCC[C@H]1CC[C@]2(O)[C@@H]3CC[C@@H]4C[C@@H](O)CC[C@]4(C)[C@H]3CC[C@]12C (mixture of isomers) [Comp. I-bn, (EZ)-17β-[3-(2-Dimethylaminoethoxyimino)propyl]-5β-androstane-3β,14β-diol] | 100 nM | 25.1 nM | – |
